Laboratory results: US20170334899A1, “AMINO-SUBSTITUTED ISOTHIAZOLES” (Bayer Pharma Aktiengesellschaft, priority 2014, published 2017)

These compounds were tested on HeLa (assay: Proliferation assay (crystal violet), HeLa). Conditions: Homo sapiens, HeLa, 96 h, HeLa cells; 4 days incubation; crystal violet staining; read-out: IC50 inhibition of proliferation, HeLa.
Type: cell-based
Summary of the method: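 Cells plated at 1000-5000/well with 10% FCS, treated after 24 h with compound at 0.001-10 μM (0.5% DMSO) for 4 days. Glutaraldehyde-fixed, crystal violet-stained, A595 normalised to zero-point plate (0%) and untreated cells (100%); IC50 by 4-parameter fit.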

Compound | IC50
Cc1nsc(Nc2cncc(C(F)(F)F)n2)c1C(=O)Nc1ccc(OCCCN)nc1 [Example 209, N-[6-(3-aminopropoxy)pyridin-3-yl]-3-methyl-5-{[6-(trifluoromethyl)pyrazin-2-yl]amino}-1,2-thiazole-4-carboxamide] | > 10 µM
Cc1nsc(Nc2cnc(C(F)(F)F)cn2)c1C(=O)Nc1ccc(OCCNC(=O)OC(C)(C)C)c(F)c1 [Example 215, tert-butyl [2-(2-fluoro-4-{[(3-methyl-5-{[5-(trifluoromethyl)pyrazin-2-yl]amino}-1,2-thiazol-4-yl)carbonyl]amino}phenoxy)ethyl]carbamate] | 0.14 µM
Cc1nsc(Nc2cnc3ccccc3n2)c1C(=O)Nc1ccc(Nc2ccc(F)c(F)c2)nc1 [Example 245, N-{6-[(3,4-difluorophenyl)amino]pyridin-3-yl}-3-methyl-5-(quinoxalin-2-ylamino)-1,2-thiazole-4-carboxamide] | 9.9 µM
COC(=O)c1cc(NC(=O)c2c(C)nsc2Nc2cnc3ccccc3n2)cc(C(=O)OC)c1 [Example 237, dimethyl 5-({[3-methyl-5-(quinoxalin-2-ylamino)-1,2-thiazol-4-yl]carbonyl}amino)isophthalate] | > 10 µM
Cc1nsc(Nc2cnc3ccccc3n2)c1C(=O)Nc1ccc(NC2CCCN(C(=O)OC(C)(C)C)C2)nc1 (stereo not shown) [Example 241, tert-butyl 3-{[5-({[3-methyl-5-(quinoxalin-2-ylamino)-1,2-thiazol-4-yl]carbonyl}amino)pyridin-2-yl]amino}piperidine-1-carboxylate] | 9.3 µM
Cc1nsc(Nc2cnc3ccccc3n2)c1C(=O)Nc1ccc(OC2CCNCC2)nc1 [Example 19, 3-Methyl-N-[6-(piperidin-4-yloxy)pyridin-3-yl]-5-(quinoxalin-2-ylamino)-1,2-thiazole-4-carboxamide] | 3.5 µM
Cc1nsc(Nc2cncc(C(F)(F)F)n2)c1C(=O)Nc1ccc(C(=O)NC2CCN(C(=O)OC(C)(C)C)CC2)cc1 [Example 222, tert-butyl 4-[(4-{[(3-methyl-5-{[6-(trifluoromethyl)pyrazin-2-yl]amino}-1,2-thiazol-4-yl)carbonyl]amino}benzoyl)amino] piperidine-1-carboxylate] | 6.2 µM
CNS(=O)(=O)c1ccc(NC(=O)c2c(C)nsc2Nc2cc(C#N)ccn2)cc1 [Example 210, 5-[(4-cyanopyridin-2-yl)amino]-3-methyl-N-[4-(methylsulfamoyl)phenyl]-1,2-thiazole-4-carboxamide] | 1.9 µM
Cc1nsc(Nc2cc(C#N)ccn2)c1C(=O)Nc1cccc(C(=O)OC(C)(C)C)c1 [Example 239, tert-butyl 3-[({5-[(4-cyanopyridin-2-yl)amino]-3-methyl-1,2-thiazol-4-yl}carbonyl)amino]benzoate] | 1.1 µM
COC(=O)CCc1cccc(NC(=O)c2c(C)nsc2Nc2ccc(C#N)cn2)c1 [Example 176, methyl 3-{3-[({5-[(5-cyanopyridin-2-yl)amino]-3-methyl-1,2-thiazol-4-yl}carbonyl)amino]phenyl}propanoate] | 5 µM
Cc1nsc(Nc2cnc(C(F)(F)F)cn2)c1C(=O)Nc1ccc(OCCN)c(F)c1 [Example 221, 3-N-[4-(2-aminoethoxy)-3-fluorophenyl]-3-methyl-5-{[5-(trifluoromethyl)pyrazin-2-yl]amino}-1,2-thiazole-4-carboxamide] | 2.5 µM
Cc1nsc(Nc2cncc(C(F)(F)F)n2)c1C(=O)Nc1ccc(OC2CCCN(C(=O)OC(C)(C)C)C2)nc1 (stereo not shown) [Example 189, tert-butyl 3-[(5-{[(3-methyl-5-{[6-(trifluoromethyl)pyrazin-2-yl]amino}-1,2-thiazol-4-yl)carbonyl]amino}pyridin-2-yl)oxy]piperidine-1-carboxylate] | 0.94 µM
Cc1nsc(Nc2cnc3ccccc3n2)c1C(=O)Nc1cccc(NC(=O)C(C)(C)C)c1 [Example 186, N-{3-[(2,2-dimethylpropanoyl)amino]phenyl}-3-methyl-5-(quinoxalin-2-ylamino)-1,2-thiazole-4-carboxamide] | 6.5 µM
Cc1nsc(Nc2cnccn2)c1C(=O)Nc1ccc(C(=O)OC(C)(C)C)cc1 [Example 184, tert-butyl 4-({[3-methyl-5-(pyrazin-2-ylamino)-1,2-thiazol-4-yl]carbonyl}amino)benzoate] | 3.8 µM
Cc1nsc(Nc2ccc(C#N)cn2)c1C(=O)Nc1ccc(OCCC(=O)OC(C)(C)C)nc1 [Example 199, tert-butyl 3-({5-[({5-[(5-cyanopyridin-2-yl)amino]-3-methyl-1,2-thiazol-4-yl}carbonyl)amino]pyridin-2-yl}oxy)propanoate] | 8.7 µM
CNC(=O)c1ccc(NC(=O)c2c(C)nsc2Nc2ccc(C#N)cn2)cc1F [Example 208, 5-[(5-cyanopyridin-2-yl)amino]-N-[3-fluoro-4-(methylcarbamoyl)phenyl]-3-methyl-1,2-thiazole-4-carboxamide] | 6 µM
